Counter-ions that a name gives are not always drawn. Like-named read-outs stand apart in the source and are kept apart here.
What was measured:
[1] = system: NRF2 (nuclear factor erythroid 2-related factor 2); test: NRF2 +/-GSH activation assay (DiscoverX PathHunter NRF2 translocation kit, U2OS cells); type: cell-based; conditions: for NRF2 activation +GSH Emax / NRF2 activation −GSH Emax / −GSH Emax: normalised to DMF high control; for NRF2 activation, result in words: −GSH and/or +GSH
Procedure, shortened: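 Activation is expressed as percent of plate DMF (high) versus no-DMF (low) controls, from luminescence after 6 h compound exposure at 37 °C of U2OS PathHunter cells. The +GSH condition used compound pre-incubated 30 min in 6 mM working GSH; −GSH cells received compound directly.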

[2] = system: mouse cryopreserved hepatocytes; test: Hepatocyte stability assay, mouse; type: in vitro ADME
Procedure, shortened: (§1)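 Thawed cryopreserved hepatocytes (viability >70%) at 0.5×10^6 cells/mL in Leibovitz buffer were preincubated at 37° C, then given 10 μM compound (0.1% DMSO) in duplicate. Samples at 0–60 min were quenched in acetonitrile and analysed by LC-MS/MS. Intrinsic clearance and half-life were derived from ln % remaining versus time.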

[3] = system: IL-1β cytokine output from THP-1s; test: THP-1 AlphaLISA IL-1β cytokine inhibition assay; type: cell-based
Procedure, shortened: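 IL-1β release by AlphaLISA, expressed as % inhibition against +/− LPS controls on each plate. Differentiation: PMA, 72 h. Sequence: 30 min compound pre-treatment, LPS 24 h, Nigericin 1 h before supernatant harvest, all at 37° C./5% CO2.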

[4] = system: human cryopreserved hepatocytes; test: Hepatocyte stability assay, human; type: in vitro ADME
Procedure, shortened: as §1

[5] = system: IL-6 cytokine output from THP-1s; test: THP-1 AlphaLISA IL-6 cytokine inhibition assay; type: cell-based
Procedure, shortened: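 THP-1 cells differentiated with PMA for 72 h, then pre-incubated with compound 30 min, stimulated with LPS 24 h, then Nigericin 1 h, all at 37° C. Supernatant IL-6 measured by AlphaLISA. Percentage inhibition normalized to +/− LPS plate controls.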

[6] = Hepatocyte stability assay, mouse; type: in vitro ADME; conditions: mouse, hepatocytes; for hepatocyte CLint at 10 μM: Hepatocyte stability Clint; for half-life at 10 μM: Hepatocyte stability T½
Procedure, shortened: as §1

[7] = Hepatocyte stability assay, human; type: in vitro ADME; conditions: human, hepatocytes; for hepatocyte CLint at 10 μM: Hepatocyte stability Clint; for half-life at 10 μM: Hepatocyte stability T½
Procedure, shortened: as §1

[8] = Mouse hepatocytes, compound 10 μM, 0.5×10^6 cells/mL, 60 minutes (a n=2, b n=3)
[9] = differentiated THP-1 cells, LPS then nigericin
[10] = Human hepatocytes, compound 10 μM, 0.5×10^6 cells/mL, 60 minutes (a n=2, c n=4)
[11] = −GSH, Table 5 exo vs endo comparison
[12] = Homo sapiens, THP-1, Table 3, head to head comparison of exo vs endo double bond compounds
[13] = Homo sapiens, THP-1, differentiated THP-1 cells, LPS then nigericin
[14] = Homo sapiens, THP-1, differentiated THP-1 cells, data from repeated experiments
[15] = +GSH, 30 minute compound-GSH pre-incubation, read-out: NRF2 activation +GSH EC50
[16] = −GSH, U2OS PathHunter cells, 6 hours compound treatment, read-out: NRF2 activation −GSH EC50
[17] = Homo sapiens, differentiated THP-1 cells, LPS then nigericin

Row | EC50 [1, 15] [µM] | EC50 [1, 16] [µM] | IC50 [5, 17] [µM] | Compound | NRF2 activation +GSH Emax ([1]; +GSH) [%] | NRF2 activation −GSH Emax ([1]; −GSH) [%] | hepatocyte CLint at 10 μM [6] [µL/min/1e6 cells] | half-life at 10 μM [6] [min] | IC50 [3, 13] [µM] | hepatocyte CLint at 10 μM [7] [µL/min/1e6 cells] | half-life at 10 μM [7] [min] | IC50 [5, 13] [µM] | also measured
1 | – | – | – | C=C(CC(=O)OCCCCCCCC)C(=O)O [4-octyl itaconate, 4-Octyl itaconate, reference compound] | 148 | 165 | – | – | – | – | – | – | Hepatocyte stability Clint [2, 8]: 351 μL min^−1 10^−6 cells; Hepatocyte stability T½ [2, 8]: 4 min; IC50 [3, 9]: 37.8 µM; Hepatocyte stability Clint [4, 10]: 401 μL min^−1 10^−6 cells; Hepatocyte stability T½ [4, 10]: 4 min; IC50 [5, 9]: 19.1 µM
2 | – | – | – | C=C(Cc1nc(CCCCCCCC)no1)C(=O)O [Example 1, 2-((3-octyl-1,2,4-oxadiazol-5-yl)methyl)acrylic acid] | 187 | 243 | 118 | 12 | 4.9 | 115 | 12 | 3.7 | NRF2 activation, result in words [1]: activated NRF2 more potently and with higher efficacy than 4-octyl itaconate and 2-(2-chlorobenzyl)acrylic acid; −GSH Emax [1, 11]: 243%; stability in mouse cryopreserved hepatocytes, in words ([2]; mouse, hepatocytes): improved stability; IC50 [3, 12]: 4.9 µM; IC50 ([3]; Homo sapiens, THP-1, Table 3, data from repeated experiment): 4.7 µM; IC50 [3, 14]: 4.7 µM; reduction of cytokine release versus comparators, in words ([3]; compared with 4-octyl itaconate and 2-(2-chlorobenzyl)acrylic acid): reduced cytokine release more effectively than 4-octyl itaconate and 2-(2-chlorobenzyl)acrylic acid; stability in human cryopreserved hepatocytes, in words ([4]; human, hepatocytes): improved stability; IC50 [5, 14]: 4 µM
3 | 42.2 | 30.7 | 33.4 | C=C(Cc1noc(C2(c3ccc(Br)cc3)CC2)n1)C(=O)O [Example 89, 2-((5-(1-(4-bromophenyl)cyclopropyl)-1,2,4-oxadiazol-3-yl)methyl)acrylic acid] | 63 | 99 | 336 | 5 | 12.2 | 38 | 41 | – | –
4 | 3.4 | 3.2 | 2.4 | C=C(Cc1nc(C(F)(F)c2ccc(CCCC)cc2)no1)C(=O)O [Example 91, 2-((3-((4-butylphenyl)difluoromethyl)-1,2,4-oxadiazol-5-yl)methyl)acrylic acid] | 190 | 231 | 320 | 6 | 3.8 | 74 | 21 | – | –
5 | 9.5 | 7.2 | 5.2 | C=C(Cc1cc(CCCCCCCC)on1)C(=O)O [Example 102, 2-((5-octylisoxazol-3-yl)methyl)acrylic acid] | 230 | 342 | > 460 | < 3 | 7.4 | > 460 | < 3 | – | –
6 | 5.3 | 5.3 | 2 | C=C(Cc1ccc(CCCCCCCC)cn1)C(=O)O [Example 105] | 166 | 257 | > 460 | < 3 | 4.2 | > 460 | < 3 | – | –
7 | 48.8 | 38.9 | 9.8 | C=C(C(=O)O)C(OC)c1nc(CCCCCCCC)no1 (stereo not drawn) [Example 110, 2-(methoxy(3-octyl-1,2,4-oxadiazol-5-yl)methyl)acrylic acid] | 132 | 153 | > 460 | < 3 | > 31.6 | > 460 | < 3 | – | –
8 | 13.7 | 11.2 | 13.1 | C=C(Cc1nc(C(F)(F)c2ccc(SC(F)(F)F)cc2)no1)C(=O)O [Example 155, 2-((3-(difluoro(4-((trifluoromethyl)thio)phenyl)methyl)-1,2,4-oxadiazol-5-yl)methyl)acrylic acid] | 123 | 201 | 87 | 17 | 9.1 | 8 | 201 | – | –
9 | > 100 | 1.4 | 51.2 | C/C(=C\c1nc(C2(c3ccc(Br)cc3)CC2)no1)C(=O)O [Example 168] | 16 | 69 | 393 | 5 | 33.6 | 69 | 18 | – | NRF2 activation, result in words [1]: more potent in NRF2 (-GSH) than Example 50; EC50 ([1]; −GSH, Table 5 exo vs endo comparison, read-out: −GSH EC50): 1.4 µM; −GSH Emax [1, 11]: 69%; IC50 [3, 12]: 33.6 µM

Row | Compound | EC50 [1, 15] [µM] | EC50 [1, 16] [µM] | IC50 [5, 17] [µM] | NRF2 activation +GSH Emax ([1]; +GSH) [%] | NRF2 activation −GSH Emax ([1]; −GSH) [%] | hepatocyte CLint at 10 μM [6] [µL/min/1e6 cells] | half-life at 10 μM [6] [min] | IC50 [3, 13] [µM] | hepatocyte CLint at 10 μM [7] [µL/min/1e6 cells] | half-life at 10 μM [7] [min] | IC50 [5, 13] [µM] | also measured
10 | C=C(Cc1nc(C(F)(F)c2ccc(Br)cc2)no1)C(=O)O [Example 90, 2-((3-((4-bromophenyl)difluoromethyl)-1,2,4-oxadiazol-5-yl)methyl)acrylic acid] | 44 | 45.3 | – | 130 | 172 | 34 | 56 | 3.4 | 7 | 206 | 15.7 | –
11 | C=C(Cc1nc(Cc2ccc(C(F)(F)CCCC)cc2)no1)C(=O)O [Example 93, 2-((3-(4-(1,1-difluoropentyl)benzyl)-1,2,4-oxadiazol-5-yl)methyl)acrylic acid] | 14.3 | 12.6 | – | 190 | 224 | > 460 | < 3 | 16.1 | 40 | 38 | 8.7 | –
12 | C=C(Cc1nc(C2(c3ccc(C(F)(F)F)cc3)CC2)co1)C(=O)O [Example 103, 2-((4-(1-(4-(trifluoromethyl)phenyl)cyclopropyl)oxazol-2-yl)methyl)acrylic acid] | 42.7 | 40.5 | – | 190 | 306 | 94 | 16 | 14.4 | 43 | 31 | 19.7 | –
13 | C=C(Cc1cc(CCCCCCCC)ccn1)C(=O)O [Example 104, 2-((4-octylpyridin-2-yl)methyl)acrylic acid trifluoroacetic acid salt] | 8.2 | 7.5 | – | 216 | 293 | > 460 | < 3 | 11.6 | 370 | 3 | 2.1 | –
14 | C=C(C(=O)O)C(O)c1nc(CCCCCCCC)no1 (stereo not drawn) [Example 108, 2-(hydroxy(3-octyl-1,2,4-oxadiazol-5-yl)methyl)acrylic acid] | 29 | 19.7 | – | 213 | 299 | 438 | 4 | 18.4 | 10 | 163 | 8.3 | –
15 | C=C(Cc1nc(Cc2ccc(C3CCCC3)cc2)no1)C(=O)O [Example 112, 2-((3-(4-cyclopentylbenzyl)-1,2,4-oxadiazol-5-yl)methyl)acrylic acid] | 10.7 | 7.3 | – | 283 | 284 | 160 | 12 | 14.2 | 25 | 61 | 4.4 | –
